Biological target: T1, C1s (Cricetulus griseus, UniProt G3GUR0)
T1 construct: endogenous in cells; host or cells: CHO cells; FreeStyle CHO-S (Thermo Fisher) named in Materials and Methods; 10x concentrated culture supernatant
Assay: Proteolysis of purified MN gp120 by 10× concentrated CHO supernatant, western blot
Assay type: biochemical, Chinese Hamster
Settings: purified MN gp120 (clade B) combined with 10× concentrated CHO supernatant; reduced with DTT; goat polyclonal anti-gp120 western blot
Description: FIGS. 8A and 8B. […] FIG. 8A. Purified MN gp120, a clade B protein, was combined with 10× concentrated CHO supernatant. Samples were reduced with DTT and probed on western blot using a goat polyclonal antibody against gp120. FIG. 8B provides details of samples loaded in lanes 1-5 in FIG. 8A. The serine protease inhibitor, 4-AMB was used.
Enrichment of protease from CHO cell culture supernatant was carried out using a series of chromatography columns to enrich for protein containing proteolytic activity. Individual chromatography fractions (CHO cell culture supernatant was fractionated based on size using size exclusion chromatography, followed by further purification on strong anion-exchange column) were assayed for the presence of protease activity against purified gp120.

T1 sequence (G3GUR0 entry or part of it): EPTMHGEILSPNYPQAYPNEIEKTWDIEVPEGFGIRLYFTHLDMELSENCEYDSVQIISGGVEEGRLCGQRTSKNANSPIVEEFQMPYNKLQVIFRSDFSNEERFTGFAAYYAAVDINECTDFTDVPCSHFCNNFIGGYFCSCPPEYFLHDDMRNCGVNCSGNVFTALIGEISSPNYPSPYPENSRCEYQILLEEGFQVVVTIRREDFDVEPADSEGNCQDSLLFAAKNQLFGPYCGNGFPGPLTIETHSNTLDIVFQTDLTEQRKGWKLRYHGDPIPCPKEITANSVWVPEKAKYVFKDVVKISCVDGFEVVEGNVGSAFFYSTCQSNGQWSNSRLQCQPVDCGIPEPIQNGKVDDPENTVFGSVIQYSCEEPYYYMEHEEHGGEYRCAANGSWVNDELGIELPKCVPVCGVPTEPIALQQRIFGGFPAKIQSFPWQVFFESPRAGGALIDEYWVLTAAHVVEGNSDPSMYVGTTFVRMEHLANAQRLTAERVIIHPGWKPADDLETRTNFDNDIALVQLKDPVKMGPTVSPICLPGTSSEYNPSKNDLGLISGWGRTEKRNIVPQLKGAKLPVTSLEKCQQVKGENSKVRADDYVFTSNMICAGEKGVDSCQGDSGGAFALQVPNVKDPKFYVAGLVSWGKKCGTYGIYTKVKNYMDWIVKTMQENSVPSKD

## O=C(O)CN(CCOCCOCCN(CC(=O)O)CC(=O)O)CC(=O)O [EGTA]
  proteolysis of gp120 in CHO cell supernatant: Inhibition of proteolysis

From US12559526B2, “Complement component 1s (C1s) deficient cells for production of vaccines and biopharmaceutical proteins” (The Regents of the University of California, priority 2018, dated 2026)
